{
  "source": "patent US6756480B2",
  "about": "“Modulators of receptors for parathyroid hormone and parathyroid hormone-related protein” (Amgen Inc., priority 2000, dated 2004)",
  "key": {"[1]": {"system": "rat osteoblast-like ROS 17/2.8 cells", "experiment": "cAMP accumulation assay (IBMX, 15 minute challenge, ELISA)", "format": "cell-based", "settings": "15 minutes", "experimental": "Cultures were treated with the phosphodiesterase inhibitor IBMX and then challenged for 15 minutes with various PTH fragments. CAMP was measured by ELISA.\nWe tested the relative ability of PTH-Fc constructs to stimulate cAMP accumulation in rat osteoblast-like ROS 17/2.8 cells. Cultures were treated with the phosphodiesterase inhibitor IBMX to promote the accumulation of cAMP. Cultures were then challenged for 15 minutes with either vehicle (PBS), or various PTH constructs."}, "male BDF1 mice": {"system": "male BDF1 mice", "experiment": "Monotherapy in adult mice: twice-weekly PTH-(1-34)-Fc versus daily PTH-(1-34), tibial BMD by pQCT", "format": "in vivo", "settings": "3 weeks, PTH-(1-34)-Fc twice weekly, various doses", "experimental": "Daily PTH [PTH-(1-34)] was given at 80 μg/kg/day (20 nmol/kg/day).\nBriefly, male BDF1 mice (4 months of age) were treated twice per week by subcutaneous injection with various doses of PTH-(1-34)-Fc or with vehicle (PBS). Other mice were treated daily with SC injections of PTH-(1-34) at a dose of 80 μg/kg/day (20 nmol/kg/day), a treatment regimen which is optimal for increasing bone mass in rodents (M. Gunness-Hey and J. M. Hock, Metab. Bone Dis. & Rel. Res. 5:177-181, 1984). After 3 weeks, mice were sacrificed and tibiae were analyzed for bone mineral density (BMD) via pQCT (FIG. 10)."}, "Sprague Dawley (SD) rats": {"system": "Sprague Dawley (SD) rats", "experiment": "Anabolic assay: lumbar (L3) BMD by DEXA, PTH constructs with or without OPG-Fc", "format": "in vivo", "settings": "6-month-old male SD rats, DEXA Day 7; OPG-Fc 1 mg/kg once; PTH-(1-34) 20 nMoles/kg x3; PTH-(1-34)-Fc 60 nMoles/kg once", "experimental": "Briefly, 6-month-old male Sprague Dawley (SD) rats were divided into groups of 6. Baseline bone mineral density (BMD) was determined in the third lumbar vertebra (L3) of all rats by dual-energy X-ray absorptiometry (DEXA) (Day 0). Rats were then treated according to the following schedule:\nGroup 1: Vehicle controls (PBS, injected SC, Days 1, 3, and 5)\nGroup 2: OPG-Fc, single SC injection (1 mg/kg) on Day 1\nGroup 3: PTH-(1-34), SC injections on Days 1, 3, and 5, at 20 nMoles PTH/kg/injection. This represents an optimal anabolic PTH regimen.\nGroup 4: Same as group 3, but with a single OPG-Fc injection on Day 1.\nGroup 5: Single SC injection of PTH-(1-34)-Fc at 60 nMoles/kg, on Day 1. This represents a molar dose which is equivalent to the total dose of PTH-(1-34) received by group 3, but in a single injection.\nGroup 6: Same as group 5, but with a single OPG-Fc injection (SC, 1 mg/kg) on Day 1.\nDEXA of the lumbar spine was performed again on Day 7 to evaluate changes in BMD. […] The anabolic effect of a single treatment with PTH-(1-34)-Fc plus OPG-Fc was greater than that induced by multiple injections of PTH-(1-34), with or without OPG-Fc co-treatment.\nNormal 6 month old male rats were treated with PTH-Fc or PTH or vehicle by a single SC injection. Some rats also received a single SC injection of OPG. BMD was determined 7 days later by DEXA. Data represent means+SD, N=6 rats/group."}, "mice [2]": {"system": "mice", "experiment": "Hypercalcemia assay: murine hypercalcemia model, single SC injection, blood ionized calcium", "format": "in vivo", "settings": "single SC injection, equimolar doses, blood ionized calcium", "experimental": "Mice were challenged with vehicle (PBS, —X—), or with PTH-(1-34) (open symbols) or with PTH-(1-34)-Fc (closed symbols). Doses were 156 nmol/kg (circles), 469 nmol/kg (triangles) or 1,560 nmol/kg (squares). Data represent group means, n=6 mice/group.\nWe tested the potency and duration of effect of PTH-(1-34)-Fc in a murine hypercalcemia model. Briefly, mice were injected once SC with varying doses of PTH-(1-34) or PTH-(1-34)-Fc, and peripheral blood was collected from the retroorbital sinus for determination of blood ionized calcium. The half-life and the potency of PTH-(1-34)-Fc was greater than that of PTH-(1-34), as evidenced by the sustained hypercalcemic response of mice to the former agent (FIG. 4). Hypercalcemia induced by PTH-(1-34) persisted for 6-24 h, while equimolar doses of PTH-(1-34)-Fc caused more sustained hypercalcemia (48-72 h). This duration of response is consistent with greater half-life of the PTH-(1-34)-Fc construct vs. PTH-(1-34)."}, "mice [3]": {"system": "mice", "experiment": "Mouse bioassay: SC injection days 0, 5, 10; clinical chemistry (calcium, AP, TRAP) and tibial pQCT", "format": "in vivo", "experimental": "Peripheral blood was obtained daily for 3 days following single subcutaneous injections of the indicated compounds.\nPeripheral quantitative computed tomography (pQCT) was performed on the proximal tibial metaphysis of mice on day 15, after injections of PTH constructs on day 0, 5 and 10.\nWe then tested the effects of PTH-(1-34), PTH-(1-34)-Fc, PTH-(1-31)-Fc and PTH-(1-30)-Fc in mice. Four week old male mice were injected on days 0, 5, and 10 with vehicle or with PTH fragments, by SC injection. Peripheral blood was obtained for clinical chemistry at 24, 48, and 72 h. Mice were killed on day 15, vertebrae, tibiae and femurs were harvested for histology and one tibia was collected for bone density measurements (peripheral quantitative computed tomography, pQCT). Clinical chemistry endpoints included total serum calcium, serum alkaline phosphatase (AP, a marker of osteoblast activity), and serum tartrate-resistant acid phosphatase (TRAP, a marker of osteoclast activity). For each animal, the ratio of AP:TRAP was calculated as an index of relative osteoblast activity compared to osteoclast activity. A higher AP:TRAP ratio would indicate a potentially more anabolic agent."}, "mice [4]": {"system": "mice", "settings": "non-Fc conjugated peptide, stated as usual behaviour; cited from earlier work"}},
  "data": [
    {"substance": "human PTH(1-34) [PTH-(1-34), reference compound]", "values": [
      {"measurement": "potency in cAMP accumulation relative to PTH-(1-31)-Fc and PTH-(1-30)-Fc", "setting": "[1]", "value": "slightly more potent"},
      {"measurement": "cancellous BMD compared to vehicle", "setting": "male BDF1 mice; PTH-(1-34) daily 80 μg/kg/day", "value": "significantly increased"},
      {"measurement": "total tibial BMD compared to vehicle", "setting": "male BDF1 mice; PTH-(1-34) daily 80 μg/kg/day", "value": "significantly increased"},
      {"measurement": "cortical BMD in the tibia", "setting": "male BDF1 mice; PTH-(1-34) daily", "value": "not significantly enhanced"},
      {"measurement": "BMD in L3 compared to PBS-treated rats", "setting": "Sprague Dawley (SD) rats", "value": "increased modestly"},
      {"measurement": "duration of hypercalcemia", "setting": "mice [2]", "value": "6 to 24", "unit": "h"},
      {"measurement": "calculated AP:TRAP ratio", "setting": "mice [3]; 300 nmoles/kg", "value": "unchanged"},
      {"measurement": "serum AP (osteoblast marker)", "setting": "mice [3]; 300 nmoles/kg (given for PTH-(1-34)-Fc), 72 h", "value": "unchanged"},
      {"measurement": "serum calcium", "setting": "mice [3]; 300 nmoles/kg SC (equimolar), 24, 48, 72 h", "value": "not significantly different"},
      {"measurement": "bone mineral density (proximal tibial metaphysis)", "setting": "mice [3]; 300 nmoles/kg on day 0, 5, 10, pQCT day 15", "value": "modest (non-significant) anabolic effect"},
      {"measurement": "serum TRAP (osteoclast marker)", "setting": "mice [3]; mice, after single SC injection", "value": "not significantly changed"},
      {"measurement": "duration of transient increase in serum calcium normally caused", "setting": "mice [4]", "value": 12, "unit": "h"}
    ]}
  ]
}
